The values that follow come from patent publication US20250326771A1, “PIPERAZINE DERIVATIVES USEFUL IN HIV THERAPY” (VIIV HEALTHCARE COMPANY, priority 2022, published 2025).

One assay has as its target cIAP2-BIR2 (Homo sapiens (Human), UniProt Q13489). Put plainly: BIR binding assay (FRET competition), cIAP2 BIR2. A digest of the protocol: (§1)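 Compounds tested as 15-point, 3-fold series displacing 200 nM AlexaFluor647-labelled SMAC peptide from His-tagged BIR domain (cIAP1-BIR3 50 nM; cIAP1-BIR2 and cIAP2-BIR2 325 nM; XIAP-BIR3 100 nM), pH 7.4, 60 min. Eu-W1024 (2 nM) added 30 min; emission ratio fitted for IC50.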

The next assay concerns the target cIAP1-BIR2 (Homo sapiens (Human), UniProt Q13490). Kind of assay: BIR binding assay (FRET competition), cIAP1 BIR2. The procedure, abridged:
as §1

A further assay concerns the target XIAP-BIR3 (Homo sapiens (Human), UniProt P98170). Put plainly: BIR binding assay (FRET competition), XIAP BIR3. A digest of the protocol: as §1
In another assay the target is cIAP1-BIR3 (Homo sapiens (Human), UniProt Q13490). Put plainly: BIR binding assay (FRET competition), cIAP1 BIR3. As to conditions: for cIAP1 BIR3 vs BIR2 separation window: fold separation (FS) for cIAP1. A digest of the protocol: as §1
cIAP1-BIR3, sequence (Q13490 253-363): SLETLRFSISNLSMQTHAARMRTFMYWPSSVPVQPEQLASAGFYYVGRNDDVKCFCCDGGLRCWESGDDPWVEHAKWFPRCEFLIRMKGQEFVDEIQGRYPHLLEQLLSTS
For a further assay, the target named is cIAP2-BIR3 (Homo sapiens (Human), UniProt Q13489). Put plainly: BIR binding assay (FRET competition), cIAP2 BIR3. As to conditions: for cIAP2 BIR3 vs BIR2 separation window: fold separation (FS) for cIAP2.
cIAP2-BIR3, sequence (Q13489 238-349): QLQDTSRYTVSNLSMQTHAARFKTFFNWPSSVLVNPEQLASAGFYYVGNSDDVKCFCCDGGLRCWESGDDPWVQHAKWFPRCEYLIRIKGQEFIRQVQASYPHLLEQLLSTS
Assay [1] deals with Jurkat HIV-luciferase clones. Kind of assay: Jurkat latency reversal assay. The format is cell-based. As to conditions: Homo sapiens, 48 h; Jurkat latency reversal assay potency; read-out: Jurkat pEC50 (converted). The procedure, abridged:
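EC50 and maximal activation versus vehicle were derived by four-parameter logistic regression of luciferase luminescence. The luminescence was induced in pooled Jurkat HIV-luciferase clones C16, 115 and N6 (5,000 cells/well) after 48 h at 37° C with duplicate 14-point, 3-fold dilutions starting at 10 μM (0.5% DMSO).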

pIC50: −log10 of the molar value.

cIAP2-BIR2, sequence (Q13489 158-242): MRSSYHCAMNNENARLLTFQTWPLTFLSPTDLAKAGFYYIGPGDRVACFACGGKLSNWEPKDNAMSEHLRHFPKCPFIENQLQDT
cIAP1-BIR2, sequence (Q13490 173-257): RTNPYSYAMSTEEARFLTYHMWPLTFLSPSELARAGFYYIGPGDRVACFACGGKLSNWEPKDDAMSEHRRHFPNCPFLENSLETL
XIAP-BIR3, sequence (P98170 241-356): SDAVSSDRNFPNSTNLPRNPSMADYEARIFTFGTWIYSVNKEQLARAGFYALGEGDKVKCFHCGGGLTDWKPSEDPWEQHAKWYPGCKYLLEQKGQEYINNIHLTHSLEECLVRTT

Consider `C[C@@H]1CN(CC(=O)N2CC(C)(C)c3[nH]c(=O)c(Cc4ccc(F)cc4)cc32)[C@@H](CN2CCO[C@H](COc3ccc(C(=O)C(=O)c4ccc(OC[C@@H]5CN(C[C@H]6CN[C@H](C)CN6CC(=O)N6CC(C)(C)c7[nH]c(=O)c(Cc8ccc(F)cc8)cc76)CCO5)cc4)cc3)C2)CN1` [Example 59, 1,2-bis(4-(((S)-4-(((2R,5R)-1-(2-(6-(4-fluorobenzyl)-3,3-dimethyl-5-oxo-2,3,4,5-tetrahydro-1H-pyrrolo[3,2-b]pyridin-1-yl)-2-oxoethyl)-5-methylpiperazin-2-1)methyl)morpholin-2-yl)methoxy)phenyl)ethane-1,2-dione], for which the pIC50 (commonly −log10 of the IC50, conventionally taken in molar units) is 5.00 to 5.50 at cIAP2-BIR2; 5.00 to 5.50 at cIAP1-BIR2; 7.50 to 7.80 at XIAP-BIR3; 7.50 to 7.80 on cIAP1-BIR3; 7.80 to 8.10 on cIAP2-BIR3. Besides, the “cIAP1 BIR3 vs BIR2 separation window” value on cIAP1-BIR3 is on record as “+++ (10,000>FS>1,000)”. Moreover, at cIAP2-BIR3, the “cIAP2 BIR3 vs BIR2 separation window” value was “+++ (10,000>FS>1,000)”. Moreover, in assay [1], the EC50 was 0.49 to 12.6 nM.
Take `C[C@@H]1CN(CC(=O)N2CC(C)(C)c3[nH]c(=O)c(Cc4ccc(F)cc4)cc32)[C@@H](CN2CCN(C(=O)c3ccc(/C=C/c4ccc(C(=O)N5CCN(C[C@H]6CN[C@H](C)CN6CC(=O)N6CC(C)(C)c7[nH]c(=O)c(Cc8ccc(F)cc8)cc76)[C@H](C)C5)cc4)cc3)C[C@H]2C)CN1` [Example 20, 1,1′-(2,2′-((3R,3′R,6R,6′R)-(((2R,2′R)-(4,4′-((E)-ethene-1,2-diyl)bis(benzoyl))bis(2-methylpiperazine-4,1-diyl))bis(methylene))bis(3-methylpiperazine-6,1-diyl))bis(acetyl))bis(6-(4-fluorobenzyl)-3,3-dimethyl-1,2,3,4-tetrahydro-5H-pyrrolo[3,2-b]pyridin-5-one)]: the pIC50 was 6.00 to 7.65 on cIAP2-BIR2; 6.00 to 7.65 at cIAP1-BIR2; 6.30 to 7.50 on XIAP-BIR3; 7.50 to 7.80 on cIAP1-BIR3; 7.50 to 7.80 at cIAP2-BIR3. In addition, the “cIAP1 BIR3 vs BIR2 separation window” value at cIAP1-BIR3 is on record as “+ (100>FS>1)”. Besides, the “cIAP2 BIR3 vs BIR2 separation window” value at cIAP2-BIR3 is recorded as “++ (1,000>FS>100)”. In assay [1], the EC50 was 12.6 to 63.1 nM.
On to `C[C@@H]1CN(CC(=O)N2CC(C)(C)c3[nH]c(=O)c(Cc4ccc(F)cc4)cc32)[C@@H](CN2CCO[C@H](COc3ccc(F)c(OC[C@@H]4CN(C[C@H]5CN[C@H](C)CN5CC(=O)N5CC(C)(C)c6[nH]c(=O)c(Cc7ccc(F)cc7)cc65)CCO4)c3F)C2)CN1` [Example 74, 1,1′-(2,2′-((3R,3′R,6R,6′R)-(((2S,2'S)-(((2,4-difluoro-1,3-phenylene)bis(oxy))bis(methylene))bis(morpholine-2,4-diyl))bis(methylene))bis(3-methylpiperazine-6,1-diyl))bis(acetyl))bis(6-(4-fluorobenzyl)-3,3-dimethyl-1,2,3,4-tetrahydro-5H-pyrrolo[3,2-b]pyridin-5-one)], for which the pIC50 on cIAP2-BIR2 was 5.50 to 6.00; on cIAP1-BIR2 it was 5.50 to 6.00; at XIAP-BIR3, 8.10 to 8.86; on cIAP1-BIR3, 8.10 to 8.86; at cIAP2-BIR3 it was 8.10 to 8.86. On cIAP1-BIR3, the “cIAP1 BIR3 vs BIR2 separation window” value is recorded as “+++ (10,000>FS>1,000)”. Also, on cIAP2-BIR3, the “cIAP2 BIR3 vs BIR2 separation window” value is listed as “+++ (10,000>FS>1,000)”. Also, in assay [1], the EC50 is 0.49 to 12.6 nM.
`C[C@@H]1CN(CC(=O)N2CC(C)(C)c3[nH]c(=O)c(Cc4ccc(F)cc4)cc32)[C@@H](CN2CCN(CCCCCCCCCCN3CCN(C[C@H]4CN[C@H](C)CN4CC(=O)N4CC(C)(C)c5[nH]c(=O)c(Cc6ccc(F)cc6)cc54)[C@H](C)C3)C[C@H]2C)CN1` [Example 25, 1,1′-(2,2′-((3R,3′R,6R,6′R)-(((2R,2′R)-decane-1,10-diylbis(2-methylpiperazine-4,1-diyl))bis(methylene))bis(3-methylpiperazine-6,1-diyl))bis(acetyl))bis(6-(4-fluorobenzyl)-3,3-dimethyl-1,2,3,4-tetrahydro-5H-pyrrolo[3,2-b]pyridin-5-one)]: the pIC50 is 6.00 to 7.65 at cIAP2-BIR2; 6.00 to 7.65 on cIAP1-BIR2; 7.80 to 8.10 on XIAP-BIR3; 7.80 to 8.10 at cIAP1-BIR3; 8.10 to 8.86 at cIAP2-BIR3. At cIAP1-BIR3, the “cIAP1 BIR3 vs BIR2 separation window” value is “++ (1,000>FS>100)”. Further, the “cIAP2 BIR3 vs BIR2 separation window” value on cIAP2-BIR3 is on record as “+++ (10,000>FS>1,000)”. The EC50 in assay [1] is 12.6 to 63.1 nM.
Consider `C[C@@H]1CN(CC(=O)N2CC(C)(C)c3[nH]c(=O)c(Cc4ccc(F)cc4)cc32)[C@@H](CN2CCO[C@H](COc3cc(C#N)cc(OC[C@@H]4CN(C[C@H]5CN[C@H](C)CN5CC(=O)N5CC(C)(C)c6[nH]c(=O)c(Cc7ccc(F)cc7)cc65)CCO4)c3)C2)CN1` [Example 76, 3,5-bis(((S)-4-(((2R,5R)-1-(2-(6-(4-fluorobenzyl)-3,3-dimethyl-5-oxo-2,3,4,5-tetrahydro-1H-pyrrolo[3,2-b]pyridin-1-yl)-2-oxoethyl)-5-methylpiperazin-2-yl)methyl)morpholin-2-yl)methoxy)benzonitrile], for which the pIC50 is 5.50 to 6.00 at cIAP2-BIR2; 5.00 to 5.50 on cIAP1-BIR2; 7.50 to 7.80 at XIAP-BIR3; 7.80 to 8.10 on cIAP1-BIR3; 8.10 to 8.86 at cIAP2-BIR3. The “cIAP1 BIR3 vs BIR2 separation window” value at cIAP1-BIR3 was “+++ (10,000>FS>1,000)”. Further, the “cIAP2 BIR3 vs BIR2 separation window” value on cIAP2-BIR3 is “+++ (10,000>FS>1,000)”. The EC50 in assay [1] is 0.49 to 12.6 nM.
As for `C[C@@H]1CN(CC(=O)N2CC(C)(C)c3[nH]c(=O)c(Cc4ccc(Cl)cc4C#N)cc32)[C@@H](CN2CCO[C@H](C(=O)NCc3ccc(CNC(=O)[C@@H]4CN(C[C@H]5CN[C@H](C)CN5CC(=O)N5CC(C)(C)c6[nH]c(=O)c(Cc7ccc(Cl)cc7C#N)cc65)CCO4)cc3)C2)CN1` [Compound 171, (2S,2′S)-N,N′-(1,4-phenylenebis(methylene)) bis(4-(((2R,5R)-1-(2-(6-(4-chloro-2-cyanobenzyl)-3,3-dimethyl-5-oxo-2,3,4,5-tetrahydro-1H-pyrrolo[3,2-b]pyridin-1-yl)-2-oxoethyl)-5-methylpiperazin-2-yl)methyl)morpholine-2-carboxamide)], the negative logarithm of the IC50 (pIC50) at cIAP2-BIR2 was 6.00 to 7.65; at cIAP1-BIR2 it was 6.00 to 7.65; at XIAP-BIR3, 6.30 to 7.50; at cIAP1-BIR3, 8.10 to 8.86; on cIAP2-BIR3, 8.10 to 8.86. In addition, the “cIAP1 BIR3 vs BIR2 separation window” value on cIAP1-BIR3 is “++ (1,000>FS>100)”. Besides, the “cIAP2 BIR3 vs BIR2 separation window” value at cIAP2-BIR3 is listed as “++ (1,000>FS>100)”. The EC50 in assay [1] is 12.6 to 63.1 nM.
Take `C[C@@H]1CN(CC(=O)N2CC(C)(C)c3[nH]c(=O)c(Cc4ccc(Cl)cc4Cl)cc32)[C@@H](CN2CCO[C@H](C(=O)NCc3ccc(CNC(=O)[C@@H]4CN(C[C@H]5CN[C@H](C)CN5CC(=O)N5CC(C)(C)c6[nH]c(=O)c(Cc7ccc(Cl)cc7Cl)cc65)CCO4)cc3)C2)CN1` [Compound 165, (2S,2′S)-N,N′-(1,4-phenylenebis(methylene)) bis(4-(((2R,5R)-1-(2-(6-(2,4-dichlorobenzyl)-3,3-dimethyl-5-oxo-2,3,4,5-tetrahydro-1H-pyrrolo[3,2-b]pyridin-1-yl)-2-oxoethyl)-5-methylpiperazin-2-yl)methyl)morpholine-2-carboxamide)]: the pIC50 at cIAP2-BIR2 is 5.00 to 5.50; at cIAP1-BIR2, 5.50 to 6.00; at XIAP-BIR3 it was 6.30 to 7.50; at cIAP1-BIR3, 7.80 to 8.10; on cIAP2-BIR3 it was 8.10 to 8.86. The “cIAP1 BIR3 vs BIR2 separation window” value at cIAP1-BIR3 is reported as “+++ (10,000>FS>1,000)”. Also, the “cIAP2 BIR3 vs BIR2 separation window” value on cIAP2-BIR3 is given as “+++ (10,000>FS>1,000)”. Also, the EC50 in assay [1] was 12.6 to 63.1 nM.
Regarding `C[C@@H]1CN(CC(=O)N2CC(C)(C)c3[nH]c(=O)c(Cc4ccc(F)cc4)cc32)[C@@H](CN2CCO[C@H](C(=O)NCCCCCCCCNC(=O)[C@@H]3CN(C[C@H]4CN[C@H](C)CN4CC(=O)N4CC(C)(C)c5[nH]c(=O)c(Cc6ccc(F)cc6)cc54)CCO3)C2)CN1` [Example 119, (2S,2'S)-N,N′-(octane-1,8-diyl)bis(4-(((2R,5R)-1-(2-(6-(4-fluorobenzyl)-3,3-dimethyl-5-oxo-2,3,4,5-tetrahydro-1H-pyrrolo[3,2-b]pyridin-1-yl)-2-oxoethyl)-5-methylpiperazin-2-yl)methyl)morpholine-2-carboxamide)], the pIC50 at cIAP2-BIR2 is 6.00 to 7.65; at cIAP1-BIR2 it was 5.50 to 6.00; at XIAP-BIR3, 7.80 to 8.10; on cIAP1-BIR3 it was 8.10 to 8.86; at cIAP2-BIR3, 8.10 to 8.86. The “cIAP1 BIR3 vs BIR2 separation window” value at cIAP1-BIR3 was “+++ (10,000>FS>1,000)”. For the same compound, the “cIAP2 BIR3 vs BIR2 separation window” value on cIAP2-BIR3 was “+++ (10,000>FS>1,000)”. The EC50 in assay [1] is 12.6 to 63.1 nM.
